Marks after values point to notes of the source that are not given here.
Tests used:
female NOD mice [1] = assay: Aerosol treatment and diabetes assessment (blood glucose >11 mM); type: in vivo, mouse; details: for Diabetes frequency: 32 mice/group, aerosol 10 consecutive days then weekly from 28 days of age, at 105 days of age; for diabetes incidence at 156 days of age (median) / diabetes incidence at 240 days of age (median): aerosol for 3 or 10 consecutive days and then weekly from 28 days of age, five separate experiments; for diabetes incidence at 240 days of age (median): p=0.005; for incidence of diabetes by 240 days of age: single aerosol treatment at 28 days of age, female NOD mice
Protocol: Semi-sealed boxes of eight female NOD mice were each aerosolized by connection to a standard, patient electric pump ([…] Aerosol MKV, Anaesthetic Supplies, Sydney, Australia) and Aeroflo nebulizer (Waite & Co., Sydney). Recombinant human insulin (Humulin R, Eli Lilly) or control ovalbumin protein, at 4 mg/ml, was delivered over 10 min. at an air flow rate of 6 litres/min. in a rated droplet size of <5.8 μm, to groups of 24-32 mice. All treatments were given between 0900 and 1100 hours. Protocols and mouse care were approved and supervised by the institutional Animal Ethic Committee. Retro-orbital venous blood was sampled at least every 28 days from 100 days of age and mice considered to be diabetic if their blood glucose, confirmed by a repeat test, was >11 mM. Glucose was measured with BM-Test Glycemic® strips and a Reflolux® II meter (Boehringer-Mannheim), on a drop of blood aspirated via a glass capillary tube from the retro-orbital venous plexus of unanesthetised mice. Aerosol human insulin or ovalbumin were administered in different schedules to female NOD mice from 28 days of age, the earliest time at which insulitis is detectable in the colony of mice, and their incidence of diabetes and severity of insulitis subsequently measured.

female NOD mice [2] = assay: Histology: insulitis score and salivary gland infiltration; type: in vivo, mouse; details: for Insulitis score: mean ± SD, scale 0-4, aerosol 10 consecutive days then weekly from 28 days of age, five non-diabetic mice per group at 105 days of age
Protocol: Mice were killed by CO2 inhalation and the pancreas and salivary glands immediately removed into Bouin's fixative and embedded in paraffin. The insulitis score, a measure of the severity of islet infiltration was determined blindly by two independent investigators by grading and then averaging a minimum of 15 separate islets in serial 6 μm pancreas sections stained with haematoxylin and eosin. The grading scale was: 0, no filtration, islet intact; 1, <10 peri-islet lymphoid cells, islet intact; 2, 10-20 peri-and intra-islet lymphoid cells, islet intact; 3, >20 peri- and intra-islet lymphoid cells, <50% of islet replaced or destroyed; 4, massive lymphoid infiltrate with >50% of islet replaced or destroyed. Infiltration of the salivary glands was graded by the number of lymphoid cells in clusters: 0, no cells; 1, <10 cells; 2, 10-50 cells; 3, >50 cells.
Mice (32/group) were given either aerosol insulin or ovalbumin for 10 consecutive days and then weekly from 28 days of age. At 105 days of age, five non-diabetic mice from each group were killed for pancreas histology. The insulitis score is expressed as mean ±SD. • 1.

[3] = system: splenocytes from aerosol-treated mice; assay: Proliferative responses of splenocytes from aerosol-treated mice ([3H]-thymidine uptake); type: cell-based, mouse
Protocol: (§1) Spleen cells from individual normoglycemic mice were treated with a red cell lysis buffer, resuspended and incubated in quadruplicate at 2×10^5/200 μl of serum-free HL-1 medium (Hycor, Irvine, Calif.) containing […] 2-mercaptoethanol, in round-bottom wells with the indicated concentrations of antigen. After 3 days at 37° C. in 5% v/v CO2/air, 100 μl aliquots from each replicate supernatant were collected and stored at −70° C. for cytokine assays; the cells were then pulsed with 3H-thymidine, harvested 16 hours later and counted on a Topcount™ micro-scintillation counter (Packard, Meriden, Conn.). Insulin was recombinant human (Humulin R, Eli Lilly), is used for aerosol treatments. Insulin B-chain peptide corresponding to amino acids 9-23 of mouse insulin II (Peptide Express, Fort Collins, Colo.) was more than 90% pure by HPLC analysis. GAD65 was the recombinant human form expressed with a C-terminal hexahistidine in a baculovirus system and purified by Ni^2+ chelation) affinity chromatography. It was resolved as a single band in SDS-PAGE and was endotoxin-free by the quantitative Limulus lysate assay (BioWhittaker, Walkersville, Md.).
Splenocytes from three mice per group were assayed in quadruplicate in HL-1 serum-free medium. Statistical comparisons (Mann-Whitney U tests) were between the twelve results for each group.

[4] = system: splenocytes from aerosol-treated mice; assay: Cytokine secretion by splenocytes from aerosol-treated mice (ELISA); type: cell-based; details: splenocytes with 40 μg/ml mouse insulin II B chain peptide (a 9-23), three days incubation; for IL-4 secretion / IL-10 secretion: lower limit of detection 16 pg/ml
Protocol: as §1
IL-2, -4, -10 and IFN-γ were measured by ELISAs with monoclonal antibody pairs (Pharmingen); the lower limits of detection were 62, 16, 16 and 55 pg/ml, respectively. TGF-β1 was measured with an ELISA kit (Promega) with a lower limit of detection of 16 pg/ml.
Supernatants from replicate culture wells (Table 2) were sampled alter three days incubation and assayed for cytokines.

insulin antibodies = assay: Insulin antibodies in serum, 125I-insulin immunoprecipitation assay; type: in vivo, mouse; details: sera n=12/group, aerosol-treated mice aged 70-105 days
Protocol: To detect insulin antibodies, ^125lablelled human insulin (approx. 100,000 cpm: specific activity 120 μCi/μg) was incubated with or without excess unlabelled insulin (10 μg/ml) in phosphate-buffered saline containing a mixture of protease inhibitors and serial log dilutions of mouse serum, for 5 days at 4° C. Complexes were then precipitated with rabbit anti-mouse globulin anti-serum, washed and counted in a gamma counter. Positive control sera (guinea pig anti-porcine insulin serum, human IDDM sera) maximally precipitated 37-54% of the total radioactivity. Non-specific binding, in the presence of excess unlabelled insulin, was ≦3.3%.
Insulin antibodies were measured by a standard immunoprecipitation assay with sera (n=12/group) from insulin- and ovalbumin-treated mice aged 70-105 days. […] Defective suppressor T-cell function has been postulated to shift the balance towards Th1 in IDDM (11). It seems unlikely that the reduced T-cell proliferative response to GAD could reflect ‘bystander’ suppression due to the secretion of the Th2 cytokines IL4 and IL-10 (8) by insulin aerosol-induced regulatory cells because, apart from an absence of added insulin in the cultures with GAD, responses to conA and anti-CD3 were not impaired. A direct explanation is that tile reduced response to GAD reflects the protective effect of aerosol insulin on insulitis and β-cell destruction. […]

male NOD mice = assay: Adoptive transfer of diabetes (co-transfer of splenocytes); type: in vivo, mouse
NOD female mice = assay: Intranasal insulin, proinsulin or proinsulin peptide 24-36, diabetes in NOD mice; type: in vivo, mouse; details: for onset and incidence of diabetes: single intranasal dose at either 28 or 56 days of age, compared to control proteins ovalbumin or hen egg lysozyme; for effectiveness on a comparative dose basis: single intranasal dose, NOD female mice
Protocol: Intranasal insulin (FIG. 1), proinsulin (FIG. 2) or proinsulin peptide 24-36 (FIG. 3). Commercially available insulin at 4 mg/ml, or proinsuling or proinsulin peptide 24-36 at 1-4 mg/ml in either insulin carrier solution or mouse tonicity—phosphate buffered saline, was applied in a volume of 10-20 μl to the nostrils of unanaesthetised, restrained NOD female mice at either 28 or 56 days of age.

[5] = system: at-risk first-degree relatives with immune markers of IDDM; details: intranasal
Excerpt: A clinical trial involves administration of intranasal insulin to at-risk but otherwise healthy first-degree relatives with immune markers of IDDM, including circulating antibodies and T cells reactive with islet autoantigens.
This trial examines the effect of intranasal insulin on the surrogate immune markers of IDDM. The design is randomized, double-blind and placebo-controlled, with a crossover at six months. The placebo is the carrier solution normally used for insulin. […] Treatment is administered daily for 10 consecutive days, then for two consecutive days weekly. After six months, treatment is crossed over (from insulin to placebo, or vice versa).
The administration dose of insulin per nostril is approximately 200 μl of the commercial 4 mg/ml solution. The placebo is the carrier solution in which the insulin is normally dissolved.

female NOD mice [6] = assay: Aerosol treatment and diabetes assessment (blood glucose >11 mM); type: in vivo, mouse; details: aerosol for 10 consecutive days and then weekly, started at 49 days of age (insulitis well-established)
[7] = humans, in the absence of absorption-promoting agents; cited from earlier work
NOD mouse = details: oral, 1 mg twice weekly; cited from earlier work
[8] = additive: Anti-CD3 antibody (10 μg/ml)
[9] = additive: Concanavalin A (5 μg/ml)
[10] = additive: Human GAD65 (20 μg/ml)
[11] = additive: Human insulin (40 μg/ml)
[12] = additive: Mouse insulin II B-chain (a 9-23) (40 μg/ml)

Row | Substance | Diabetes frequency (female NOD mice [1]) | diabetes incidence at 156 days of age (median) (female NOD mice [1]) | diabetes incidence at 240 days of age (median) (female NOD mice [1]) | incidence of diabetes by 240 days of age (female NOD mice [1]) | Insulitis score (female NOD mice [2]) | [3H]-thymidine uptake (cpm, mean ± SD) [3, 8] | [3H]-thymidine uptake (cpm, mean ± SD) [3, 9] | [3H]-thymidine uptake (cpm, mean ± SD) [3, 10] | [3H]-thymidine uptake (cpm, mean ± SD) [3, 11] | [3H]-thymidine uptake (cpm, mean ± SD) [3, 12] | [3H]-thymidine uptake (cpm, mean ± SD) ([3]; additive: None) | IFN-γ secretion [4] | IL-2 secretion [4] | TGF-β secretion [4] | IL-4 secretion [4] | IL-10 secretion [4] | Precipitation of 125I-insulin radioactivity by antibodies in sera (mean precipitated ± SD) (insulin antibodies) | onset and incidence of diabetes (NOD female mice) | diabetes incidence at 156 days (female NOD mice [6]) | effectiveness on a comparative dose basis (NOD female mice) | further results
1 | Recombinant human insulin | 2/32 (6.3%)^2 | 23% | 49% | 75% | 1.2 ± 0.98^1 | 2221 ± 533 cpm | 3357 ± 812 cpm | 424 ± 165^c cpm | 134 ± 27 cpm | 169 ± 80^b cpm | 157 ± 28^a cpm | 368 ± 71 pg/mL | 200 ± 15 pg/mL | 293 ± 131 | 36 ± 6 pg/mL | 222 ± 149 pg/mL | 12.7±3.6% | significantly delayed the onset and decreased the incidence of diabetes | 25% |  | clinical complications or abnormalities at autopsy (female NOD mice [1]; NOD mice treated with aerosol or intranasal insulin): no clinical complications, or abnormalities at autopsy; Infiltration of the salivary glands by lymphoid cells (sialitis) (female NOD mice [2]; NOD mice, aerosol treatment): unaffected; Diabetes incidence after transfer decreased (male NOD mice; 1.4×10^5 γδ T cells from aerosol-treated mice co-injected with 2×10^7 spleen cells from diabetic mice, for at least 70 days): 50%; Diabetes incidence suppressed after adoptive transfer (male NOD mice; co-injection of splenocytes or nylon wool-non-adherent splenocytes from aerosol-treated mice with 2×10^7 diabetic spleen cells, six separate experiments): ≥ 75%; side effects ([5]; 36 high-risk subjects aged 4-30): No significant side effects; mucosal irritation ([5]; human subjects): only been rare and then minor and transient; systemic uptake from the naso-pharyngeal mucosa [7]: insignificant
2 | ovalbumin [control ovalbumin protein, at 4 mg/ml, delivered as aerosol] | 8/32 (25%) | 47% | 79% | 88% | 2.6 ± 0.92 | 2643 ± 1126 cpm | 2960 ± 494 cpm | 1381 ± 650^f cpm | 197 ± 82 cpm | 435 ± 240^e cpm | 208 ± 29^d cpm | 423 ± 31 pg/mL | 186 ± 27 pg/mL | 162 ± 41 | not detectable | not detectable | 6.9±2.5% |  | 58% |  | 
3 | porcine insulin [oral porcine insulin] |  |  |  |  |  |  |  |  |  |  |  |  |  |  |  |  |  |  |  |  | onset and incidence of diabetes (NOD mouse): delayed the onset and reduced the incidence of diabetes
4 | proinsulin |  |  |  |  |  |  |  |  |  |  |  |  |  |  |  |  |  | significantly delayed the onset and decreased the incidence of diabetes |  | more effective than insulin | 
5 | proinsulin peptide 24-36 (AFVNQHLCGSHLV; pro-form; UniProt P01308 24-36, looked up, fragment) [peptide fragment of proinsulin, amino acids 24-36, applied intranasally at 1-4 mg/ml] |  |  |  |  |  |  |  |  |  |  |  |  |  |  |  |  |  | significantly delayed the onset and decreased the incidence of diabetes |  | more effective than insulin | adoptive transfer of diabetes by splenocytes from diabetic mice (male NOD mice; whole splenocytes, and splenocytes depleted of CD8 but not CD4 T cells, from female mice given a single intranasal dose at 28 days, taken at 56 days): significantly suppressed the adoptive transfer of diabetes
